According to PubChem BioAssay (NCI):
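1) Cells in 96-well plates. 2) Compound, 48 h, 5 concentrations. 3) Linear interpolation between surrounding doses. 4) Unreached endpoint = highest concentration. The concentration for full growth arrest is given as TGI.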

How the values were obtained:
Test in all cases: growth of human tumour cells (NCI), 48 h
786-0 renal = system: 786-0 renal
A498 renal = system: A498 renal
A549 NSCLC = system: A549 NSCLC
ACHN renal = system: ACHN renal
BT-549 breast = system: BT-549 breast
CAKI-1 renal = system: CAKI-1 renal
CCRF-CEM leukemia = system: CCRF-CEM leukemia
COLO 205 colon = system: COLO 205 colon
DU-145 prostate = system: DU-145 prostate
EKVX NSCLC = system: EKVX NSCLC
HCC-2998 colon = system: HCC-2998 colon
HCT-116 colon = system: HCT-116 colon
HCT-15 colon = system: HCT-15 colon
HL-60(TB) leukemia = system: HL-60(TB) leukemia
HOP-62 NSCLC = system: HOP-62 NSCLC
HS 578T breast = system: HS 578T breast
IGROV1 ovarian = system: IGROV1 ovarian
K-562 leukemia = system: K-562 leukemia
KM12 colon = system: KM12 colon
LOX IMVI melanoma = system: LOX IMVI melanoma
M14 melanoma = system: M14 melanoma
MALME-3M melanoma = system: MALME-3M melanoma
MCF7 breast = system: MCF7 breast
MDA-MB-231 breast = system: MDA-MB-231 breast
MDA-MB-435 = system: MDA-MB-435
MDA-N = system: MDA-N
MOLT-4 leukemia = system: MOLT-4 leukemia
NCI-H226 lung = system: NCI-H226 lung
NCI-H23 lung = system: NCI-H23 lung
NCI-H460 lung = system: NCI-H460 lung
NCI-H522 lung = system: NCI-H522 lung
NCI/ADR-RES ovarian = system: NCI/ADR-RES ovarian
OVCAR-3 ovarian = system: OVCAR-3 ovarian
OVCAR-4 ovarian = system: OVCAR-4 ovarian
OVCAR-5 ovarian = system: OVCAR-5 ovarian
OVCAR-8 ovarian = system: OVCAR-8 ovarian
PC-3 prostate = system: PC-3 prostate
RPMI-8226 leukemia = system: RPMI-8226 leukemia
RXF 393 renal = system: RXF 393 renal
SF-268 CNS = system: SF-268 CNS
SF-295 CNS = system: SF-295 CNS
SK-MEL-2 melanoma = system: SK-MEL-2 melanoma
SK-MEL-28 melanoma = system: SK-MEL-28 melanoma
SK-MEL-5 melanoma = system: SK-MEL-5 melanoma
SK-OV-3 ovarian = system: SK-OV-3 ovarian
SN12C renal = system: SN12C renal
SNB-19 CNS = system: SNB-19 CNS
SNB-75 CNS = system: SNB-75 CNS
SR leukemia = system: SR leukemia
SW-620 colon = system: SW-620 colon
T-47D breast = system: T-47D breast
TK-10 renal = system: TK-10 renal
U251 CNS = system: U251 CNS
UACC-257 melanoma = system: UACC-257 melanoma
UACC-62 melanoma = system: UACC-62 melanoma
UO-31 renal = system: UO-31 renal
HOP-92 NSCLC = system: HOP-92 NSCLC
HT29 colon = system: HT29 colon
SF-539 CNS = system: SF-539 CNS

Compound: COC(=O)/C=C(C)/C=C\COC1CCCCO1 (centres undefined)
- TGI (786-0 renal): > 100 µM
- TGI (A498 renal): > 100 µM
- TGI (A549 NSCLC): > 100 µM
- TGI (ACHN renal): > 100 µM
- TGI (BT-549 breast): > 100 µM
- TGI (CAKI-1 renal): > 100 µM
- TGI (CCRF-CEM leukemia): > 100 µM
- TGI (COLO 205 colon): > 100 µM
- TGI (DU-145 prostate): > 100 µM
- TGI (EKVX NSCLC): > 100 µM
- TGI (HCC-2998 colon): > 100 µM
- TGI (HCT-116 colon): > 100 µM
- TGI (HCT-15 colon): > 100 µM
- TGI (HL-60(TB) leukemia): > 100 µM
- TGI (HOP-62 NSCLC): > 100 µM
- TGI (HS 578T breast): > 100 µM
- TGI (IGROV1 ovarian): > 100 µM
- TGI (K-562 leukemia): > 100 µM
- TGI (KM12 colon): > 100 µM
- TGI (LOX IMVI melanoma): > 100 µM
- TGI (M14 melanoma): > 100 µM
- TGI (MALME-3M melanoma): > 100 µM
- TGI (MCF7 breast): > 100 µM
- TGI (MDA-MB-231 breast): > 100 µM
- TGI (MDA-MB-435): > 100 µM
- TGI (MDA-N): > 100 µM
- TGI (MOLT-4 leukemia): > 100 µM
- TGI (NCI-H226 lung): > 100 µM
- TGI (NCI-H23 lung): > 100 µM
- TGI (NCI-H460 lung): > 100 µM
- TGI (NCI-H522 lung): > 100 µM
- TGI (NCI/ADR-RES ovarian): > 100 µM
- TGI (OVCAR-3 ovarian): > 100 µM
- TGI (OVCAR-4 ovarian): > 100 µM
- TGI (OVCAR-5 ovarian): > 100 µM
- TGI (OVCAR-8 ovarian): > 100 µM
- TGI (PC-3 prostate): > 100 µM
- TGI (RPMI-8226 leukemia): > 100 µM
- TGI (RXF 393 renal): > 100 µM
- TGI (SF-268 CNS): > 100 µM
- TGI (SF-295 CNS): > 100 µM
- TGI (SK-MEL-2 melanoma): > 100 µM
- TGI (SK-MEL-28 melanoma): > 100 µM
- TGI (SK-MEL-5 melanoma): > 100 µM
- TGI (SK-OV-3 ovarian): > 100 µM
- TGI (SN12C renal): > 100 µM
- TGI (SNB-19 CNS): > 100 µM
- TGI (SNB-75 CNS): > 100 µM
- TGI (SR leukemia): > 100 µM
- TGI (SW-620 colon): > 100 µM
- TGI (T-47D breast): > 100 µM
- TGI (TK-10 renal): > 100 µM
- TGI (U251 CNS): > 100 µM
- TGI (UACC-257 melanoma): > 100 µM
- TGI (UACC-62 melanoma): > 100 µM
- TGI (UO-31 renal): > 100 µM

Compound: CN(C)S(=O)(=O)c1ccc2[nH]c(O)c(C3=Nc4ccccc4C3=O)c2c1
- TGI (786-0 renal): 50.3 µM
- TGI (A498 renal): 97.4 µM
- TGI (A549 NSCLC): > 100 µM
- TGI (ACHN renal): 33.7 µM
- TGI (BT-549 breast): 28.9 µM
- TGI (CAKI-1 renal): > 100 µM
- TGI (CCRF-CEM leukemia): > 100 µM
- TGI (COLO 205 colon): > 100 µM
- TGI (DU-145 prostate): 94 µM
- TGI (EKVX NSCLC): > 100 µM
- TGI (HCC-2998 colon): > 100 µM
- TGI (HCT-116 colon): 70.1 µM
- TGI (HCT-15 colon): > 100 µM
- TGI (HOP-62 NSCLC): 47.2 µM
- TGI (HOP-92 NSCLC): 46.8 µM
- TGI (HS 578T breast): 76.9 µM
- TGI (HT29 colon): > 100 µM
- TGI (IGROV1 ovarian): 27.4 µM
- TGI (K-562 leukemia): > 100 µM
- TGI (KM12 colon): > 100 µM
- TGI (LOX IMVI melanoma): > 100 µM
- TGI (M14 melanoma): > 100 µM
- TGI (MALME-3M melanoma): > 100 µM
- TGI (MCF7 breast): > 100 µM
- TGI (MDA-MB-231 breast): 52.3 µM
- TGI (MDA-MB-435): > 100 µM
- TGI (MDA-N): > 100 µM
- TGI (MOLT-4 leukemia): 36.2 µM
- TGI (NCI-H226 lung): 81.3 µM
- TGI (NCI-H23 lung): 29.9 µM
- TGI (NCI-H460 lung): 97.5 µM
- TGI (NCI-H522 lung): > 100 µM
- TGI (NCI/ADR-RES ovarian): > 100 µM
- TGI (OVCAR-3 ovarian): > 100 µM
- TGI (OVCAR-4 ovarian): > 100 µM
- TGI (OVCAR-5 ovarian): > 100 µM
- TGI (OVCAR-8 ovarian): > 100 µM
- TGI (PC-3 prostate): 90.4 µM
- TGI (RPMI-8226 leukemia): > 100 µM
- TGI (RXF 393 renal): 14.2 µM
- TGI (SF-268 CNS): 38.7 µM
- TGI (SF-295 CNS): 26.7 µM
- TGI (SK-MEL-2 melanoma): 44.7 µM
- TGI (SK-MEL-28 melanoma): > 100 µM
- TGI (SK-MEL-5 melanoma): > 100 µM
- TGI (SK-OV-3 ovarian): 28.5 µM
- TGI (SN12C renal): > 100 µM
- TGI (SNB-19 CNS): 42.6 µM
- TGI (SNB-75 CNS): 10.3 µM
- TGI (SR leukemia): 35.9 µM
- TGI (SW-620 colon): > 100 µM
- TGI (T-47D breast): > 100 µM
- TGI (TK-10 renal): 40 µM
- TGI (U251 CNS): 24.9 µM
- TGI (UACC-257 melanoma): > 100 µM
- TGI (UACC-62 melanoma): 34.9 µM
- TGI (UO-31 renal): > 100 µM

Compound: OCCCN=C1CCCCC1
- TGI (786-0 renal): > 100 µM
- TGI (A498 renal): > 100 µM
- TGI (A549 NSCLC): > 100 µM
- TGI (ACHN renal): > 100 µM
- TGI (BT-549 breast): > 100 µM
- TGI (CAKI-1 renal): > 100 µM
- TGI (COLO 205 colon): > 100 µM
- TGI (DU-145 prostate): > 100 µM
- TGI (EKVX NSCLC): > 100 µM
- TGI (HCT-116 colon): > 100 µM
- TGI (HCT-15 colon): > 100 µM
- TGI (HL-60(TB) leukemia): > 100 µM
- TGI (HOP-62 NSCLC): > 100 µM
- TGI (HOP-92 NSCLC): > 100 µM
- TGI (HS 578T breast): > 100 µM
- TGI (HT29 colon): > 100 µM
- TGI (IGROV1 ovarian): > 100 µM
- TGI (K-562 leukemia): > 100 µM
- TGI (KM12 colon): > 100 µM
- TGI (LOX IMVI melanoma): > 100 µM
- TGI (M14 melanoma): > 100 µM
- TGI (MALME-3M melanoma): > 100 µM
- TGI (MCF7 breast): > 100 µM
- TGI (MDA-MB-231 breast): > 100 µM
- TGI (MDA-MB-435): > 100 µM
- TGI (MDA-N): > 100 µM
- TGI (MOLT-4 leukemia): > 100 µM
- TGI (NCI-H226 lung): > 100 µM
- TGI (NCI-H23 lung): > 100 µM
- TGI (NCI-H460 lung): > 100 µM
- TGI (NCI-H522 lung): > 100 µM
- TGI (NCI/ADR-RES ovarian): > 100 µM
- TGI (OVCAR-3 ovarian): > 100 µM
- TGI (OVCAR-4 ovarian): > 100 µM
- TGI (OVCAR-5 ovarian): > 100 µM
- TGI (OVCAR-8 ovarian): > 100 µM
- TGI (PC-3 prostate): > 100 µM
- TGI (RPMI-8226 leukemia): > 100 µM
- TGI (RXF 393 renal): > 100 µM
- TGI (SF-268 CNS): > 100 µM
- TGI (SF-295 CNS): > 100 µM
- TGI (SF-539 CNS): > 100 µM
- TGI (SK-MEL-2 melanoma): > 100 µM
- TGI (SK-MEL-28 melanoma): > 100 µM
- TGI (SK-MEL-5 melanoma): > 100 µM
- TGI (SK-OV-3 ovarian): > 100 µM
- TGI (SN12C renal): > 100 µM
- TGI (SNB-19 CNS): > 100 µM
- TGI (SR leukemia): > 100 µM
- TGI (SW-620 colon): > 100 µM
- TGI (T-47D breast): > 100 µM
- TGI (TK-10 renal): > 100 µM
- TGI (U251 CNS): > 100 µM
- TGI (UACC-257 melanoma): > 100 µM
- TGI (UACC-62 melanoma): > 100 µM
- TGI (UO-31 renal): > 100 µM
